The target in one assay is T1, Lck (Homo sapiens, UniProt P06239).
T1 construct: purchased Reaction Biology Corp
The assay can be described thus: In vitro kinase assay (IC50). The assay is classed as biochemical. The protocol: (§1) Full panel kinase profiling and kinase IC50 measurement were performed by using Reaction Biology Corp. (San Diego, USA).

Another assay deals with T2, c-Src (Homo sapiens, UniProt P12931).
T2 construct: purchased Reaction Biology Corp
Description: In vitro kinase assay (IC50). The assay is classed as biochemical. The protocol:
as §1

Molecules are shown by their SMILES. Where a SMILES comes first, the peptide text is derived from it. [ ]: non-standard residue; d: D form. The star is where a group is joined. X1 = Cc1ccc(Nc2ncc3c(n2)N(C)C(=O)N(c2cc(C(=O)*)ccc2C)C3)cn1; Chg = N[C@H](C(=O)O)C1CCCCC1; Nva = CCC[C@H](N)C(=O)O; Aib = CC(C)(N)C(=O)O

T1 sequence (P06239 whole entry): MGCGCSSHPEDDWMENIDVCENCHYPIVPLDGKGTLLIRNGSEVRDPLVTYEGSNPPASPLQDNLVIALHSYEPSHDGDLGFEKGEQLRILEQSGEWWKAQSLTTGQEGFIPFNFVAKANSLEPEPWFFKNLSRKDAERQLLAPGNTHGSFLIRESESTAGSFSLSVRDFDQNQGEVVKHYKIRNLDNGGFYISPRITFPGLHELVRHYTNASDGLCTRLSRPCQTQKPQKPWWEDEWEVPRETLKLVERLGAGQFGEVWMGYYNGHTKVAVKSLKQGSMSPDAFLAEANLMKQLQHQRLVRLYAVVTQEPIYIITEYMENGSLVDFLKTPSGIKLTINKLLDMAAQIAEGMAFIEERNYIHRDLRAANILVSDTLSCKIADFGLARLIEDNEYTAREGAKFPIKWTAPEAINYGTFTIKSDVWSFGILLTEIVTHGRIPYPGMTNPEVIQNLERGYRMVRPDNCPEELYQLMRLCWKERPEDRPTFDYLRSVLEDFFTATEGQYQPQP
T2 sequence (P12931 whole entry): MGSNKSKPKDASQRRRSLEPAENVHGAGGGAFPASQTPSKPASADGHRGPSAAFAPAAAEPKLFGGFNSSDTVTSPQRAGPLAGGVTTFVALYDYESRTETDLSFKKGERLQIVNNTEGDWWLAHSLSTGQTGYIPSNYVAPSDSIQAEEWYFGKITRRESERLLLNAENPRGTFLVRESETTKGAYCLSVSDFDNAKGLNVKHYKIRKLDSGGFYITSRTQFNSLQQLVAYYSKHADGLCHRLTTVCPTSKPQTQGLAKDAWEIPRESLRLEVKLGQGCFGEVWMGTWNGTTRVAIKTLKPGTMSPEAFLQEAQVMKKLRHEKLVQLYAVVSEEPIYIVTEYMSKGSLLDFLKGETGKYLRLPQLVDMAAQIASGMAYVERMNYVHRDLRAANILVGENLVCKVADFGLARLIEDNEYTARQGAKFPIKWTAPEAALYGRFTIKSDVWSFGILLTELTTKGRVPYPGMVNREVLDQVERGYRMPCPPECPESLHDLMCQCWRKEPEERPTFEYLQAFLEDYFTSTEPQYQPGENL

Regarding `Cc1ccc(Nc2ncc3c(n2)N(C)C(=O)N(c2cc(C(=O)N[C@@H](CC(C)C)C(=O)N4CCC[C@H]4C(=O)NC(C)(C)C(=O)N[C@@H](CC(C)C)C(=O)N(C)C)ccc2C)C3)cn1` [7q, (S)-N-(1-(((S)-1-(dimethylamino)-4-methyl-1-oxopentan-2-yl)amino)-2-methyl-1-oxopropan-2-yl)-1-((4-methyl-3-(1-methyl-7-((6-methylpyridin-3-yl)amino)-2-oxo-1,4-dihydropyrimido[4,5-d]pyrimidin-3(2H)-yl)benzoyl)-L-leucyl)pyrrolidine-2-carboxamide] (X1-LP[Aib]L-NMe2), the values for the IC50 at Lck and at c-Src were 15.4 nM and 174 nM, respectively. Also, at Lck, the “selectivity for Lck over c-Src” value is reported as > 10 fold.
With `Cc1ccc(Nc2ncc3c(n2)N(C)C(=O)N(c2cc(C(=O)NCC(=O)N4CCC[C@H]4C(=O)NC(C)(C)C(=O)N[C@@H](CC(C)C)C(=O)N(C)C)ccc2C)C3)cn1` [7r, (S)-N-(1-(((S)-1-(dimethylamino)-4-methyl-1-oxopentan-2-yl)amino)-2-methyl-1-oxopropan-2-yl)-1-((4-methyl-3-(1-methyl-7-((6-methylpyridin-3-yl)amino)-2-oxo-1,4-dihydropyrimido[4,5-d]pyrimidin-3(2H)-yl)benzoyl)glycyl)pyrrolidine-2-carboxamide] (X1-GP[Aib]L-NMe2), the IC50 against Lck turned out to be 216 nM; on c-Src it was 577 nM.
For the molecule `Cc1ccc(Nc2ncc3c(n2)N(C)C(=O)N(c2cc(C(=O)N[C@H](C(=O)N4CCC[C@H]4C(=O)NC(C)(C)C(=O)N[C@@H](CC(C)C)C(=O)N(C)C)C4CCCCC4)ccc2C)C3)cn1` [7s, (S)-1-((S)-2-cyclohexyl-2-(4-methyl-3-(1-methyl-7-((6-methylpyridin-3-yl)amino)-2-oxo-1,4-dihydropyrimido[4,5-d]pyrimidin-3(2H)-yl)benzamido)acetyl)-N-(1-(((S)-1-(dimethylamino)-4-methyl-1-oxopentan-2-yl)amino)-2-methyl-1-oxopropan-2-yl)pyrrolidine-2-carboxamide] (X1-[Chg]P[Aib]L-NMe2), on Lck, the IC50 is 36 nM and the “selectivity for Lck over c-Src” value is recorded as > 10 fold. The IC50 against c-Src stood at 435 nM.
Consider `CCC[C@H](NC(=O)c1ccc(C)c(N2Cc3cnc(Nc4ccc(C)nc4)nc3N(C)C2=O)c1)C(=O)N1CCC[C@H]1C(=O)NC(C)(C)C(=O)N[C@@H](CC(C)C)C(=O)N(C)C` [7t, (S)-N-(1-(((S)-1-(dimethylamino)-4-methyl-1-oxopentan-2-yl)amino)-2-methyl-1-oxopropan-2-yl)-1-((S)-2-(4-methyl-3-(1-methyl-7-((6-methylpyridin-3-yl)amino)-2-oxo-1,4-dihydropyrimido[4,5-d]pyrimidin-3(2H)-yl)benzamido)pentanoyl)pyrrolidine-2-carboxamide] (X1-[Nva]P[Aib]L-NMe2), for which the IC50 against Lck was 70.8 nM; on c-Src, 477 nM.
The like results for `Cc1ccc(Nc2ncc3c(n2)N(C)C(=O)N(c2cc(C(=O)N[C@H](C(=O)N4CCC[C@H]4C(=O)NC(C)(C)C(=O)NCC(=O)N(C)C)C(C)C)ccc2C)C3)cn1` [7u, (S)-N-(1-((2-(dimethylamino)-2-oxoethyl)amino)-2-methyl-1-oxopropan-2-yl)-1-((4-methyl-3-(1-methyl-7-((6-methylpyridin-3-yl)amino)-2-oxo-1,4-dihydropyrimido[4,5-d]pyrimidin-3(2H)-yl)benzoyl)-L-valyl)pyrrolidine-2-carboxamide] (X1-VP[Aib]G-NMe2) were, in that order, 174 nM and 1140 nM.
In the case of `Cc1ccc(Nc2ncc3c(n2)N(C)C(=O)N(c2cc(C(=O)N[C@H](C(=O)N4CCC[C@@H]4C(=O)N[C@H](C(=O)N[C@H](C)c4ccccc4)C(C)C)C(C)C)ccc2C)C3)cn1` [7v, (R)-N-((S)-3-methyl-1-oxo-1-(((R)-1-phenylethyl)amino)butan-2-yl)-1-((4-methyl-3-(1-methyl-7-((6-methylpyridin-3-yl)amino)-2-oxo-1,4-dihydropyrimido[4,5-d]pyrimidin-3(2H)-yl)benzoyl)-L-valyl)pyrrolidine-2-carboxamide], the IC50 against Lck worked out at 403 nM; against c-Src it was 5630 nM.
With `Cc1ccc(Nc2ncc3c(n2)N(C)C(=O)N(c2cc(C(=O)N[C@@H](Cc4ccccc4)C(=O)N4CCC[C@@H]4C(=O)N[C@H](C(=O)N[C@H](C)c4ccccc4)C(C)C)ccc2C)C3)cn1` [7w, (R)-N-((S)-3-methyl-1-oxo-1-(((R)-1-phenylethyl)amino)butan-2-yl)-1-((4-methyl-3-(1-methyl-7-((6-methylpyridin-3-yl)amino)-2-oxo-1,4-dihydropyrimido[4,5-d]pyrimidin-3(2H)-yl)benzoyl)-L-phenylalanyl)pyrrolidine-2-carboxamide], the IC50 came to 129 nM against Lck and 585 nM at c-Src.
The corresponding values for `Cc1ccc(Nc2ncc3c(n2)N(C)C(=O)N(c2cc(NC(=O)c4ccc5c(c4)NC(=O)[C@@H](Cc4ccccc4)N=C5c4ccccc4)ccc2C)C3)cn1` [11f, (R)-3-benzyl-N-(4-methyl-3-(1-methyl-7-((6-methylpyridin-3-yl)amino)-2-oxo-1,4-dihydropyrimido[4,5-d]pyrimidin-3(2H)-yl)phenyl)-2-oxo-5-phenyl-2,3-dihydro-1H-benzo[e][1,4]diazepine-8-carboxamide] are 18.7 nM and 62.6 nM.
The like results for `Cc1ccc(Nc2ncc3c(n2)N(C)C(=O)N(c2cc(NC(=O)c4ccc5c(c4)NC(=O)[C@H](Cc4ccc(F)cc4)N=C5c4ccccc4)ccc2C)C3)cn1` [11g, (S)-3-(4-fluorobenzyl)-N-(4-methyl-3-(1-methyl-7-((6-methylpyridin-3-yl)amino)-2-oxo-1,4-dihydropyrimido[4,5-d]pyrimidin-3(2H)-yl)phenyl)-2-oxo-5-phenyl-2,3-dihydro-1H-benzo[e][1,4]diazepine-8-carboxamide] were, in that order, 42.1 nM and 134 nM.
The corresponding values for `Cc1ccc(Nc2ncc3c(n2)N(C)C(=O)N(c2cc(NC(=O)c4ccc5c(c4)N(C)C(=O)[C@H](CC(C)C)N=C5c4ccccc4)ccc2C)C3)cn1` [11h, (S)-3-isobutyl-1-methyl-N-(4-methyl-3-(1-methyl-7-((6-methylpyridin-3-yl)amino)-2-oxo-1,4-dihydropyrimido[4,5-d]pyrimidin-3(2H)-yl)phenyl)-2-oxo-5-phenyl-2,3-dihydro-1H-benzo[e][1,4]diazepine-8-carboxamide] are 24.6 nM and 135 nM.
Consider `C=CCN1C(=O)[C@H](CC(C)C)N=C(c2ccccc2)c2ccc(C(=O)Nc3ccc(C)c(N4Cc5cnc(Nc6ccc(C)nc6)nc5N(C)C4=O)c3)cc21` [11i, (S)-1-allyl-3-isobutyl-N-(4-methyl-3-(1-methyl-7-((6-methylpyridin-3-yl)amino)-2-oxo-1,4-dihydropyrimido[4,5-d]pyrimidin-3(2H)-yl)phenyl)-2-oxo-5-phenyl-2,3-dihydro-1H-benzo[e][1,4]diazepine-8-carboxamide], for which the IC50 at Lck amounted to 49.3 nM; against c-Src, 222 nM.
The like results for `Cc1ccc(Nc2ncc3c(n2)N(C)C(=O)N(c2cc(NC(=O)c4ccc5c(c4)N(CC(C)C)C(=O)[C@H](CC(C)C)N=C5c4ccccc4)ccc2C)C3)cn1` [11j, (S)-1,3-diisobutyl-N-(4-methyl-3-(1-methyl-7-((6-methylpyridin-3-yl)amino)-2-oxo-1,4-dihydropyrimido[4,5-d]pyrimidin-3(2H)-yl)phenyl)-2-oxo-5-phenyl-2,3-dihydro-1H-benzo[e][1,4]diazepine-8-carboxamide] were, in that order, 132 nM and 461 nM.
The like results for `CC1=N[C@@H](Cc2ccccc2)C(=O)Nc2cc(C(=O)Nc3ccc(C)c(N4Cc5cnc(Nc6ccc(C)nc6)nc5N(C)C4=O)c3)ccc21` [11k, (S)-3-benzyl-5-methyl-N-(4-methyl-3-(1-methyl-7-((6-methylpyridin-3-yl)amino)-2-oxo-1,4-dihydropyrimido[4,5-d]pyrimidin-3(2H)-yl)phenyl)-2-oxo-2,3-dihydro-1H-benzo[e][1,4]diazepine-8-carboxamide] were, in that order, 3.57 nM and 27.1 nM.
The corresponding values for `CC1=N[C@H](Cc2ccccc2)C(=O)Nc2cc(C(=O)Nc3ccc(C)c(N4Cc5cnc(Nc6ccc(C)nc6)nc5N(C)C4=O)c3)ccc21` [11l, (R)-3-benzyl-5-methyl-N-(4-methyl-3-(1-methyl-7-((6-methylpyridin-3-yl)amino)-2-oxo-1,4-dihydropyrimido[4,5-d]pyrimidin-3(2H)-yl)phenyl)-2-oxo-2,3-dihydro-1H-benzo[e][1,4]diazepine-8-carboxamide] are 4.63 nM and 19.6 nM.
On to `CC1=N[C@@H](CC(C)C)C(=O)N(C)c2cc(C(=O)Nc3ccc(C)c(N4Cc5cnc(Nc6ccc(C)nc6)nc5N(C)C4=O)c3)ccc21` [11m, (S)-3-isobutyl-1,5-dimethyl-N-(4-methyl-3-(1-methyl-7-((6-methylpyridin-3-yl)amino)-2-oxo-1,4-dihydropyrimido[4,5-d]pyrimidin-3(2H)-yl)phenyl)-2-oxo-2,3-dihydro-1H-benzo[e][1,4]diazepine-8-carboxamide], for which the IC50 on Lck was found to be 1.05 nM; at c-Src, 4.01 nM.
The corresponding values for `COCCN1C(=O)[C@H](CC(C)C)N=C(c2ccccc2)c2ccc(C(=O)Nc3ccc(C)c(N4Cc5cnc(Nc6ccc(C)nc6)nc5N(C)C4=O)c3)cc21` [11n, (S)-3-isobutyl-1-(2-methoxyethyl)-N-(4-methyl-3-(1-methyl-7-((6-methylpyridin-3-yl)amino)-2-oxo-1,4-dihydropyrimido[4,5-d]pyrimidin-3(2H)-yl)phenyl)-2-oxo-5-phenyl-2,3-dihydro-1H-benzo[e][1,4]diazepine-8-carboxamide] are 16 nM and 48.6 nM.
`Cc1ccc(Nc2ncc3c(n2)N(C)C(=O)N(c2cc(NC(=O)c4ccc5c(c4)N(CC(=O)NCc4ccccc4)C(=O)[C@H](CC(C)C)N=C5c4ccccc4)ccc2C)C3)cn1` [11o, (S)-1-(2-(benzylamino)-2-oxoethyl)-3-isobutyl-N-(4-methyl-3-(1-methyl-7-((6-methylpyridin-3-yl)amino)-2-oxo-1,4-dihydropyrimido[4,5-d]pyrimidin-3(2H)-yl)phenyl)-2-oxo-5-phenyl-2,3-dihydro-1H-benzo[e][1,4]diazepine-8-carboxamide]: the results for the IC50 at Lck and on c-Src were 27.8 nM and 87.5 nM, respectively.

The term IC50 denotes the concentration needed to halve the response being measured. Lower therefore signals inhibition by little substance.

Values taken from paper PMC9067983, “Identification of highly selective type II kinase inhibitors with chiral peptidomimetic tails” (Journal of Enzyme Inhibition and Medicinal Chemistry, 2022).
